Converted amounts (≈) assume the structure as drawn. “Also recorded” adds a separate entry of the source. Read-outs that look alike come from different tables or passages of the source.
Columns and labels:
SmBRD3(2) = SmBRD3(2) (Schistosoma mansoni, UniProt A0A5K4ESD7); assay: biochemical; type: binding; conditions: for N number, binding to SmBRD3(2), Repeat 1 / N number, binding to SmBRD3(2), Repeat 2 / N number, binding to SmBRD3(2), Repeat 3 / N number, binding to SmBRD3(2), Mean: ITC stoichiometry; for N number, binding to SmBRD3(2), Mean: mean of repeats
HsBRD4(1) = target: T1, HsBRD4(1) (Homo sapiens, UniProt O60885); assay: Isothermal titration calorimetry (ITC), HsBRD4(1); type: binding; conditions: single value ± error of the curve fit
T1 construct: HsBRD4(1) Kd (ITC, nM); made in house; host or cells: E. coli BL21(DE3)

adult male S. mansoni = assay: Determination of compound parasite permeability (LCMS of worm lysate); type: in vitro ADME, Schistosoma mansoni; conditions: for Quantity of compound found in lysed adult worms: worms treated with 20 μM of the same compound for 24 h
SmBRD3(1,2) = SmBRD3(1,2) (Schistosoma mansoni, UniProt A0A5K4ESD7); assay: biochemical; type: binding; conditions: for Kd: ITC
[1] = Compound conversion in media with or without worms (LCMS); type: in vitro ADME; conditions: media in the presence or absence of worms; 20 μM; 24 h
Procedure: As the low solubility of the ethyl ester derivatives prevented us from determining their affinity for SmBRD3(2) using ITC, it is possible that these compounds are themselves inhibitors of SmBRD3(2). Alternatively, the ethyl esters could function as pro-drugs that release the corresponding acid in the parasite. To investigate compound permeability, adult worms were treated with 20 μM of the acid 15 or the ethyl ester 22 for 24 h, and then the media exchanged three times. The worms were then lysed and the levels of the acid 15 or the ethyl ester 22 were determined using LCMS (Figure S50).
Figure S-52. A. Estimation of the concentration of 15 and 22 in media after incubation with 22 in the presence and absence of S. mansoni. The concentration estimations were calculated as an average (presence of worm n=3, no worm n=2) from the analysis media in the presence (5 worms per well) or absence of worms, with error bars representing the s.e.m. B. Estimation of the concentration of 1 and 2 in media after incubation with 2 in the presence and absence of S. mansoni. The concentration estimations were calculated as an average (presence of worm n=2, no worm n=1) from the analysis of media in the presence (5 worms per well) or absence of worms with error bars representing the […]

CAD solubility assay = type: physicochemical; conditions: phosphate buffered saline, pH 7.4, phosphate buffered saline at pH 7.4; read-out: Aqueous Solubility by CAD
Procedure: A CAD solubility assay was carried out by Physchem Team, Discovery Analytical, NCE Molecular Discovery at GSK. 5 μL of 10 mM DMSO stock solution was diluted to 100 μL with pH 7.4 phosphate buffered saline, equilibrated for 1 h at room temperature, and filtered through Millipore MultiscreenHTS-PCF filter plates (MSSL BPC). The filtrate was quantified using a suitably calibrated charged aerosol detector.[45]

chromLogD assay = type: physicochemical; conditions: reversed phase HPLC column (Gemini NX C18), pH 7.4
Procedure: Lipophilicity: a chromLogD assay was carried out by the Physchem Team, Discovery Analytical, NCE Molecular Discovery at GSK. The chromatographic hydrophobicity index (CHI)[46],[47] values were measured using reversed phase HPLC column (50 × 2 mm […] Gemini NX C18, Phenomenex, UK) with fast acetonitrile gradient at starting mobile phase of pHs 2, 7.4, or 10.5. CHI values were derived directly from the gradient retention times using calibration parameters for standard compounds. The CHI value approximates to the volume % organic concentration when the compound elutes. CHI was linearly transformed into a chromLogD[48] value by least-squares fitting of experimental CHI values to calculated cLogP values for over 20000 research compounds.

S. mansoni adult worms = assay: Ex vivo adult worm screening (motility, IVLEs, pairing); set-up: species or system Schistosoma mansoni; conditions: 72 h
Procedure: S. mansoni adult worms were recovered by hepatic portal vein perfusion from TO mice (Mus musculus HsdOLa:TO - Tuck Ordinary; Envigo, UK) that were percutaneously infected 7 weeks earlier with 180 cercariae.[65],[71] Following perfusion, schistosomes were washed and processed as previously described.[65],[66] Subsequently, schistosome pairs were seeded into 48 well tissue culture plates (1 worm pair/well, in duplicate) and dosed with the compounds (20 μM in 0.2% DMSO). DMSO (0.2%) and praziquantel (10 μM in 0.1% DMSO) were also included as negative and positive controls, respectively. Parasite motility was assessed by a digital image processing-based system (WormassayGP2),[66] modified after Wormassay.[72]In vitro laid eggs (IVLEs) were enumerated and the presence or absence of paired worms was noted.

S. mansoni miracidia = assay: Ex vivo miracidia to sporocyst transformation screening; set-up: species or system Schistosoma mansoni; conditions: 48 h
Procedure: S. mansoni miracidia were obtained by hatching of schistosome eggs as previously described.[73] The resulting miracidial suspension was collected, washed with Chernin’s balanced salt solution (CBSS),[73] and enumerated prior to being used for ex vivo miracidia to sporocyst screens as previously reported.[66],[73] Each compound was tested at 0.5, 2.0, 5.0, 10, and 25 μM final concentrations (in 1% DMSO). Each treatment was set up in duplicate (15–25 miracidia/well). Each titration was performed in three independent experiments (two technical replicates per data point). Parasites cultured in CBSS (containing 1% DMSO) were included as negative controls. After 48 h incubation at 26 °C in the dark, dead, fully transformed and partially transformed miracidia were enumerated as previously described.[74],[75]

S. mansoni schistosomula = assay: Ex vivo schistosomula screening (Roboworm high content imaging); set-up: species or system Schistosoma mansoni; conditions: 72 h; for EC50: Schistosoma mansoni, ethyl esters (R=Et), 95% CI in brackets
Procedure: A high-throughput imaging platform that quantifies both phenotype and motility ex vivo, was used to screen compounds against schistosomula; their effects were assessed as previously described.[20] Briefly, the schistosomula stage of S. mansoni was obtained by mechanical transformation of cercariae, dispensed into 384-well tissue culture plates, and dosed with 20 μM (Figure 7) or 10 μM (Figure S48) of each compound. Following 72 h coincubation of the schistosomula and compound, the plate was subjected to high content imaging to quantify the effects of each compound.
S. mansoni schistosomula were obtained by mechanical transformation from cercariae as previously described,[64] distributed in 384-well tissue culture plates (PerkinElmer, catalogue number 6007460) at 120 parasites/well and dosed with the selected compounds as previously reported.[65]−[68] For this study, each compound (as 10 mM DMSO stock solution) was initially tested at two concentration points (20 and 10 μM final concentration, in duplicates) in at least four independent screens (Z′ scores above 0.35).[69] Each screen contained both positive (10 μM auranofin (AUR) in 0.625% DMSO) and negative (0.625% DMSO) controls. […] Following 72 h schistosomula/compound coincubation, the plate was analyzed by the Roboworm platform.[70] EC50 values were calculated from the titrated concentrations by nonlinear regression, after log transformation of concentrations and data normalization using GraphPad Prism 7.02.

[2] = ITC, read-out: SmBRD3(2) pKd (converted)
[3] = ITC, single run ± error of curve fit, Repeat 2, read-out: SmBRD3(2) Kd, Repeat 2
[4] = ITC, single run ± error of curve fit, Repeat 3, read-out: SmBRD3(2) Kd, Repeat 3
[5] = 20 μM (Figure 7) or 10 μM (Figure S48)

Chain of SmBRD3(1,2) (A0A5K4ESD7 entry or part of it): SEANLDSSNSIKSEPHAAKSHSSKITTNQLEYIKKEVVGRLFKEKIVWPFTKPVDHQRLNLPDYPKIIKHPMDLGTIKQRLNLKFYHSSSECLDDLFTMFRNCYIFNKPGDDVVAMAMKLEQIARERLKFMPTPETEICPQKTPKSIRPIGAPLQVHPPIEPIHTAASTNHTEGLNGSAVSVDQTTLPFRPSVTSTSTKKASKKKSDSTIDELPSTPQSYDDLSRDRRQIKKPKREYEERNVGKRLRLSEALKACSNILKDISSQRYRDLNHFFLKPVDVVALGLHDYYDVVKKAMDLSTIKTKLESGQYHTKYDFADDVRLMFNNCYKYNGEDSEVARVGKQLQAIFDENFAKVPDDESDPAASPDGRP
Chain of SmBRD3(2) (A0A5K4ESD7 entry or part of it): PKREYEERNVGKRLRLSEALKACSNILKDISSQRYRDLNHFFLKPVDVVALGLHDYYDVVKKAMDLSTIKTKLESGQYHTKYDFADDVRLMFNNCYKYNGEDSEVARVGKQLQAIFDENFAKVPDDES

N number, binding to SmBRD3(2), Repeat 1 (SmBRD3(2); Repeat 1)	N number, binding to SmBRD3(2), Repeat 2 (SmBRD3(2); Repeat 2)	N number, binding to SmBRD3(2), Repeat 3 (SmBRD3(2); Repeat 3)	N number, binding to SmBRD3(2), Mean (SmBRD3(2))	Kd (SmBRD3(2); [2])	Kd (SmBRD3(2); [3])	Kd (SmBRD3(2); [4])	Kd (SmBRD3(2); read-out: SmBRD3(2) Kd)	HsBRD4(1) Kd (ITC) (HsBRD4(1))	Kd (HsBRD4(1))	Quantity of compound found in lysed adult worms (adult male S. mansoni; LCMS)	solubility at 1 h (CAD solubility assay)	chromatographic logD (chromLogD assay)	SMILES	Conversion in media (ester hydrolysis / deacetylation) [1]	also measured
1.48 ± 2.5e-2	1.51 ± 2.0e-2	1.69 ± 1.8e-2	1.56	398 nM	361 ± 70.2 nM	411 ± 60.4 nM	364 ± 26.3 nM	high affinity	13.5 ± 2.47 nM	lower quantities			CC(=O)N1c2ccc(-c3ccc(C(=O)O)cc3)cc2[C@H](Nc2ccc3ncccc3c2)C[C@@H]1C [Compound 15, 4-{(2S,4R)-1-Acetyl-2-methyl-4-[(quinolin-6-yl)amino]-1,2,3,4-tetrahydroquinolin-6-yl}benzoic Acid]		Kd (SmBRD3(2); read-out: SmBRD3(2) Kd, Repeat 1): 320 ± 82.8 nM
													CC(=O)Oc1cc(-c2c(C)noc2C)cc(C(O)c2ccccc2)c1 (stereo not shown) [OXFBD03 (2), OXFBD03, reference compound]	rapidly deacetylated	SmBRD3(2) Kd, Repeat 1 (SmBRD3(2); ITC, single run ± error of curve fit, Repeat 1): No binding; SmBRD3(2) Kd (SmBRD3(2); ITC, single value ± error of the curve fit or mean of 2-3 repeats ± s.e.m.): No detectable binding; N number, binding to SmBRD3(1,2) (SmBRD3(1,2); ITC stoichiometry, n=1 ± error of curve fit): 1.17 ± 1.7e-2; Kd (SmBRD3(1,2); SmBRD3(1,2) Kd, n = 1 ± error of the curve fit): 675 ± 97.6 nM; Kd (SmBRD3(1,2); SmBRD3(1,2) pKd): 631 nM
1.52 ± 2.2e-2	1.57 ± 3.4e-2	1.64 ± 3.3e-2	1.58	631 nM	778 ± 179 nM	753 ± 176 nM	701 ± 64.9 nM	high affinity	64.4 ± 20.7 nM		≥ 259 µM	2.83	CC(=O)N1c2ccc(-c3ccc(C(=O)O)cc3)cc2[C@H](Nc2ccc3ccsc3c2)C[C@@H]1C [Compound 9, 4-{(2S,4R)-1-Acetyl-4-[(1-benzothiophen-6-yl)amino]-2-methyl-1,2,3,4-tetrahydroquinolin-6-yl}benzoic Acid]		Kd (SmBRD3(2); ITC, single run ± error of curve fit, Repeat 1, read-out: SmBRD3(2) Kd, Repeat 1): 572 ± 103 nM
										High quantities	13 µM (≈ 6.23 µg/mL)	5.95	CCOC(=O)c1ccc(-c2ccc3c(c2)[C@H](Nc2ccc4ncccc4c2)C[C@H](C)N3C(C)=O)cc1 [Compound 22, Ethyl 4-{(2S,4R)-1-Acetyl-2-methyl-4-[(quinolin-6-yl)amino]-1,2,3,4-tetrahydroquinolin-6-yl}benzoate]	some ester hydrolysis	SmBRD3(2) Kd (SmBRD3(2)): No binding; SmBRD3(2) Kd, Repeat 1 (SmBRD3(2)): No binding; Effect on adult worm movement (S. mansoni adult worms; 20 μM in 0.2% DMSO): substantial effects; also recorded: reduced; Effect on egg count (in vitro laid eggs) (S. mansoni adult worms; 20 μM): reduced; Effect on worm pairing (S. mansoni adult worms; 20 μM): reduced; Effect on miracidia to sporocyst transformation (S. mansoni miracidia; 0.5-25 μM in 1% DMSO, 26 °C): concentration-dependent inhibition; also recorded: substantial and concentration-dependent effect; Concentration at which the majority of miracidia were prevented from transforming into sporocysts (S. mansoni miracidia): 2.00 µM; Antischistosomula activity at 10 μM (S. mansoni schistosomula; 10 μM): active; Effect on schistosomula motility (S. mansoni schistosomula; [5]): greatest effects; also recorded: strong effects; Effect on schistosomula phenotype (S. mansoni schistosomula; [5]): greatest effects; also recorded: strong effects; EC50 (S. mansoni schistosomula; read-out: Schistosomla Movement EC50): 3300 nM; EC50 (S. mansoni schistosomula; read-out: Schistosomla Phenotype EC50): 1110 nM; Worm permeability (adult male S. mansoni; adult worms, 20 μM, 24 h): high worm permeability; Conversion of ester to acid 15 in the worm (adult male S. mansoni; worms treated with 20 μM for 24 h, LCMS): can be converted from the ester to the acid in the worm
